Results taken from patent US12528767B2, “HDAC6 inhibitors and uses thereof” (Eikonizo Therapeutics, Inc., priority 2019, dated 2026).
Where two headings read alike, the source gives them in different places.

Legend:
[1] = biological target: T1, Full length Human HDAC6 (Homo sapiens, UniProt Q9UBN7); conditions: for Selectivity (6 v 8) (fold): ratio of HDAC8 IC50/HDAC6 IC50
T1 sequence (Q9UBN7 1-1215): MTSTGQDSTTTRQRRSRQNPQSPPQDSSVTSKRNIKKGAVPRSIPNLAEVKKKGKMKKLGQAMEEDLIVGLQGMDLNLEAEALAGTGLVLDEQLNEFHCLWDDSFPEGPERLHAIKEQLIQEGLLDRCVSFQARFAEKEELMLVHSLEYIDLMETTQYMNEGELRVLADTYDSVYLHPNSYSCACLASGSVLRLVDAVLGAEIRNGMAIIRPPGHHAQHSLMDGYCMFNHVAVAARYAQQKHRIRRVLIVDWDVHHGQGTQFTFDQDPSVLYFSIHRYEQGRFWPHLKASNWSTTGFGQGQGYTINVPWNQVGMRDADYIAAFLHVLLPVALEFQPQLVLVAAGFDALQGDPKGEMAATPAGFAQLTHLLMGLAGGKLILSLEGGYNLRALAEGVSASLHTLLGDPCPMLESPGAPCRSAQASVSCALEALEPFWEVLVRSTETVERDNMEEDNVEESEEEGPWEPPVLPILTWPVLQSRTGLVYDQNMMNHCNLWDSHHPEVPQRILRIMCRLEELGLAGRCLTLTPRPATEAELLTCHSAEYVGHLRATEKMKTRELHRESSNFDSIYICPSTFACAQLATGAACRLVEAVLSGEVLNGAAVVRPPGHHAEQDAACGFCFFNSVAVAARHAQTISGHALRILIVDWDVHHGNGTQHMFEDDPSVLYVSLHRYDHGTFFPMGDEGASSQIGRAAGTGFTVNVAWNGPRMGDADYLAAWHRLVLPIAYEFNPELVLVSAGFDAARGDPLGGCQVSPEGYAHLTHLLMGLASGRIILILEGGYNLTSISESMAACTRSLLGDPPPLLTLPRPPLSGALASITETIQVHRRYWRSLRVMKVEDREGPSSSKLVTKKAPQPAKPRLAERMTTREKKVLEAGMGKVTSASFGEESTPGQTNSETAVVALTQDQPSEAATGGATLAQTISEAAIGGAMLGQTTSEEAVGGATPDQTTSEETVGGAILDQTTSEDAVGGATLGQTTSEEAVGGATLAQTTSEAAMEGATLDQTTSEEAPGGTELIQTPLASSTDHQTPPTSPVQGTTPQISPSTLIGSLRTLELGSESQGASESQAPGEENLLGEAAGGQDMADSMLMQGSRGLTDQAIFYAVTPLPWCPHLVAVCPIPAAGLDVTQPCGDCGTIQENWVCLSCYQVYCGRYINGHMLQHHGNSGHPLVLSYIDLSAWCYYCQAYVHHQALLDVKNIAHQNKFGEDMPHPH

[2] = biological target: T2, Full length Human HDAC8 (Homo sapiens, UniProt Q9BY41)
T2 sequence (Q9BY41 1-377): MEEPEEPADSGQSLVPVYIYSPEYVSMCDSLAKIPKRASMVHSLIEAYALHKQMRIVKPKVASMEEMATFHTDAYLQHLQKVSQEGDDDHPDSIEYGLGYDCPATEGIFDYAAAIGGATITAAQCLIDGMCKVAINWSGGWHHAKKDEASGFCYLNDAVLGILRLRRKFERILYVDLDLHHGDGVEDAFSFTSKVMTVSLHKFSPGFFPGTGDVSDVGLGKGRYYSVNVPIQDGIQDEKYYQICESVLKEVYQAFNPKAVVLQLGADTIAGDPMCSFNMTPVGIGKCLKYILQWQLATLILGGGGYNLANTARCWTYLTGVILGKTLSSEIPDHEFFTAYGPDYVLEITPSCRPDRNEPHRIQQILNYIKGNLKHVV

Row | Compound | IC50 [1] | Selectivity (6 v 8) (fold) ([1]; Table 1, number) | Selectivity (6 v 8) (fold) ([1]; Table 1, range class) | IC50 [2]
1 | O=C(NO)c1ccc(CN2CCC3(CC2)C2CC4CC(C2)CC3C4)c(F)c1 [compound 167, 3-fluoro-N-hydroxy-4-(((1r,3r,5r,7r)-spiro[adamantane-2,4′-piperidin]-1′-yl)methyl)benzamide] | 1 to 100 nM | 41.9 fold | III (III: >10-100) | 1000 to 10000 nM
2 | O=C(NO)c1ccc(CN2CC3(CCCC3)C2)c(F)c1 [compound 69] | 1 to 100 nM | 20.6 fold | III (III: >10-100) | 1000 to 10000 nM
3 | O=C(NO)c1cc(F)c2c(c1)CCN([C@@H]1CCC13CCCCC3)C2 (single isomer, unassigned) [compound 8] | 100 to 1000 nM | 198.5 fold | IV (IV: >100-1000) | 10000 to 100000 nM
4 | O=C1CC2CCCC(C1)N2Cc1ccc(C(=O)NO)cc1F [compound 62] | 1 to 100 nM | 30.6 fold | III (III: >10-100) | 100 to 1000 nM
5 | CC1(CN2CCc3cc(C(=O)NO)cc(F)c3C2)CC1 [compound 1, 8-fluoro-N-hydroxy-2-((1-methylcyclopropyl)methyl)-1,2,3,4-tetrahydroisoquinoline-6-carboxamide] | 1 to 100 nM | 145.7 fold | IV (IV: >100-1000) | 10000 to 100000 nM
6 | O=C(NO)c1cc(F)c2c(c1)CCN(C1CCC1)C2 [compound 4] | 1 to 100 nM |  |  | 10000 to 100000 nM
7 | O=C(NO)c1cc(F)c2c(c1)CCn1cccc1-2 [compound 147, 10-fluoro-N-hydroxy-5,6-dihydropyrrolo[2,1-a] isoquinoline-8-carboxamide] | 1 to 100 nM |  |  | 1000 to 10000 nM
8 | O=C1CC2CCC(C1)N2Cc1ccc(C(=O)NO)cc1F [compound 63] | 1 to 100 nM | 42.1 fold | III (III: >10-100) | 100 to 1000 nM
9 | CC1(C)C[C@H]2Cc3cc(C(=O)NO)cc(F)c3CN2C1 (single isomer, unassigned) [compound 125] | 1 to 100 nM | 82 fold | III (III: >10-100) | 1000 to 10000 nM
10 | O=C(NO)c1cc(F)c2c(c1)CCN(CC1CC1)C2 [compound 2] | 1 to 100 nM |  |  | 1000 to 10000 nM
11 | CN1Cc2cc(C(=O)NO)ccc2-c2cccn21 [compound 162, N-hydroxy-5-methyl-5,6-dihydropyrrolo[2,1-a]phthalazine-8-carboxamide] | 100 to 1000 nM | 2.8 fold | II (II: >1-10) | 1000 to 10000 nM
12 | Cc1cccc(C)c1CN1CCc2cc(C(=O)NO)cc(F)c2C1 [compound 28] | 1 to 100 nM |  |  | 1000 to 10000 nM
13 | CN1CC2(CCCCC2)CC[C@H]1Cc1cc(F)cc(C(=O)NO)c1 (single isomer, unassigned) [compound 171] | 1 to 100 nM | 30.2 fold | III (III: >10-100) | 1000 to 10000 nM
14 | O=C(NO)c1ccc(CN2CCCC3(C2)C2CC4CC(C2)CC3C4)c(F)c1 (centres unmarked) [compound 77] | 1 to 100 nM |  |  | 1000 to 10000 nM
15 | O=C(NO)c1ccc(CN2CC3(CCCCC3)C2)c(F)c1 [compound 70] | 1 to 100 nM | 16 fold | III (III: >10-100) | 1000 to 10000 nM
16 | O=C(NO)c1cc(F)c2c(c1)CCN(CC13CC4CC(CC(C4)O1)C3)C2 [compound 14] | 1 to 100 nM |  |  | 10000 to 100000 nM
17 | O=C(NO)c1cc(F)c2c(c1)CCN([C@H]1CCC13CCCCC3)C2 (single isomer, unassigned) [compound 9] | 1 to 100 nM | 207.1 fold | IV (IV: >100-1000) | 10000 to 100000 nM
18 | Cc1ccn2c1-c1c(F)cc(C(=O)NO)cc1CC2 [compound 155, 10-fluoro-N-hydroxy-1-methyl-5,6-dihydropyrrolo[2,1-a] isoquinoline-8-carboxamide] | 1 to 100 nM | 6.1 fold | II (II: >1-10) | 100 to 1000 nM
19 | O=C(NO)c1cc(F)c2c(c1)CCN(C1CCC13CCCCC3)C2 (centres unmarked) [compound 15] | 1 to 100 nM | 209.2 fold | IV (IV: >100-1000) | 10000 to 100000 nM
20 | O=C(NO)c1ccc2c(c1)Cn1cccc1-2 [compound 166, N-hydroxy-5H-pyrrolo[2,1-a]isoindole-7-carboxamide] | 100 to 1000 nM | 14 fold | III (III: >10-100) | 1000 to 10000 nM
21 | O=C(NO)c1cc(F)c2c(c1)CN(CC13CC4CC(CC(C4)O1)C3)C2 [compound 13] | 100 to 1000 nM | 168.4 fold | IV (IV: >100-1000) | 10000 to 100000 nM
22 | O=C(NO)c1cc(F)c2c(c1)CN(Cc1ccccc1)CC2 [compound 114, 2-benzyl-5-fluoro-N-hydroxy-1,2,3,4-tetrahydroisoquinoline-7-carboxamide] | 1 to 100 nM | 10.3 fold | III (III: >10-100) | 100 to 1000 nM
23 | O=C(NO)c1ccc(CN2CCOCC2)c(F)c1 [compound 51] | 1 to 100 nM | 27.6 fold | III (III: >10-100) | 100 to 1000 nM
24 | O=C(NO)c1cc(F)c2c(c1)CN(CC13CC4CC(CC(C4)C1)C3)CC2 [compound 113, 2-(((3r,5r,7r)-adamantan-1-yl)methyl)-5-fluoro-N-hydroxy-1,2,3,4-tetrahydroisoquinoline-7-carboxamide] | 1 to 100 nM |  |  | 1000 to 10000 nM
25 | O=C(NO)c1ccc2c(c1)CCN(CC13CC4CC(CC(C4)C1)C3)C2 [compound 26] | 1 to 100 nM | 69.7 fold | III (III: >10-100) | 1000 to 10000 nM
